Molecules are shown by their SMILES. “And” between values parts separate entries of the source, which are not always exact repeats. Equal entries are not always repeated. Toxic doses and inconclusive results are not listed.

For this test, the system named is P388 leukemia ip, CD2F1 mice, survival T/C. As to the kind of experiment: NCI In Vivo Anticancer Drug Screen. Data for tumor model P388 Leukemia (intraperitoneal) in CD2F1 (CDF1) mice. To be noted: endpoint: median survival time, higher = longer survival. The method in brief:
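Mice carrying the transplanted tumor received test compound or vehicle. Survival was recorded in each group, and the value is the treated-group measurement divided by that of the vehicle-treated control group.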

Where [1] appears, read: dose: 60.0 mg/kg/injection, schedule: Q01DX005 (ip), vehicle: saline with Tween-80.
Setting [2] is: dose: 120.0 mg/kg/injection, schedule: Q01DX005 (ip), vehicle: saline with Tween-80.
The mark [3] stands for this setting: dose: 240.0 mg/kg/injection, schedule: Q01DX005 (ip), vehicle: saline with Tween-80.
[4] abbreviates: dose: 25.0 mg/kg/injection, schedule: Q01DX009 (ip), vehicle: other.
The mark [5] stands for this setting: dose: 50.0 mg/kg/injection, schedule: Q01DX009 (ip), vehicle: Klucel (hydroxypropylcellulose) (HPC).
Where [6] appears, read: dose: 100.0 mg/kg/injection, schedule: Q01DX009 (ip), vehicle: Klucel (hydroxypropylcellulose) (HPC).
The mark [7] stands for this setting: dose: 200.0 mg/kg/injection, schedule: Q01DX009 (ip), vehicle: Klucel (hydroxypropylcellulose) (HPC).
Where [8] appears, read: dose: 50.0 mg/kg/injection, schedule: Q01DX009 (ip), vehicle: saline with Tween-80.
[9] abbreviates: dose: 100.0 mg/kg/injection, schedule: Q01DX009 (ip), vehicle: saline with Tween-80.
[10] abbreviates: dose: 200.0 mg/kg/injection, schedule: Q01DX009 (ip), vehicle: saline with Tween-80.

Consider `c1cnn([B-]2(n3cccn3)n3ccc[n+]3[B-](n3cccn3)(n3cccn3)n3ccc[n+]32)c1`, for which the T/C is 102 % of control under setting [1], 102 % of control under setting [2] and 100 % of control under setting [3].
With `C=C(C)C1Oc2ccc(C(C)=O)cc2C1O` (configuration not stated), the T/C runs as follows: (dose: 8.8 mg/kg/injection, schedule: Q01DX009 (ip), vehicle: saline) 103 % of control; (dose: 17.5 mg/kg/injection, schedule: Q01DX009 (ip), vehicle: saline) 89 % of control; (dose: 35.0 mg/kg/injection, schedule: Q01DX009 (ip), vehicle: saline) 100 % of control.
With `O=C1NCC(Br)C(=O)N1` (configuration not stated), the T/C under setting [4] is 113 % of control; the T/C (dose: 25.0 mg/kg/injection, schedule: Q01DX009 (ip), vehicle: saline + Tween-80 + alcohol) is 112 % of control; the T/C (dose: 50.0 mg/kg/injection, schedule: Q01DX009 (ip), vehicle: saline + Tween-80 + alcohol) is 121 % of control; the T/C (dose: 100.0 mg/kg/injection, schedule: Q01DX009 (ip), vehicle: saline + Tween-80 + alcohol) was 122 % of control.
With `O=[N+]([O-])c1ccccc1NN=NCCCl`, the T/C by setting is: (dose: 3.12 mg/kg/injection, schedule: Q01DX005 (ip), vehicle: Klucel (hydroxypropylcellulose) (HPC)) 112 % of control; (dose: 6.25 mg/kg/injection, schedule: Q01DX005 (ip), vehicle: Klucel (hydroxypropylcellulose) (HPC)) 120 % of control; (dose: 25.0 mg/kg/injection, schedule: Q01DX005 (ip), vehicle: Klucel (hydroxypropylcellulose) (HPC)) 120 % of control.
Turning to `O=S(=O)(O)C(F)(F)F`, the T/C (dose: 25.0 mg/kg/injection, schedule: Q01DX005 (ip), vehicle: water) was 101 % of control; the T/C (dose: 50.0 mg/kg/injection, schedule: Q01DX005 (ip), vehicle: water) is 100 % of control; the T/C (dose: 200.0 mg/kg/injection, schedule: Q01DX005 (ip), vehicle: water) was 100 % of control.
Consider `Cc1cc(C)cc(N(C2=NCCS2)C2=NCCS2)c1`, for which the T/C is, setting by setting: (dose: 25.0 mg/kg/injection, schedule: Q01DX009 (ip), vehicle: Klucel (hydroxypropylcellulose) (HPC)) 106 % of control; under setting [5], 101 % of control; under setting [6], 99 % of control; under setting [7], 104 % of control.
In the case of `O=NNc1cncc2ccccc12`, the T/C (dose: 1.56 mg/kg/injection, schedule: Q01DX009 (ip), vehicle: water) is 100 % of control; the T/C (dose: 3.12 mg/kg/injection, schedule: Q01DX009 (ip), vehicle: water) is 94 % of control; the T/C (dose: 6.0 mg/kg/injection, schedule: Q01DX008 (ip), vehicle: water) was 102 % of control; the T/C (dose: 6.25 mg/kg/injection, schedule: Q01DX009 (ip), vehicle: water) was 94 % of control; the T/C (dose: 12.5 mg/kg/injection, schedule: Q01DX008 (ip), vehicle: water) was 113 % of control; the T/C (dose: 12.5 mg/kg/injection, schedule: Q01DX009 (ip), vehicle: water) was 104 % of control. Moreover, the T/C (dose: 25.0 mg/kg/injection, schedule: Q01DX008 (ip), vehicle: water) is 111 % of control; the T/C (dose: 25.0 mg/kg/injection, schedule: Q01DX009 (ip), vehicle: water) is 115 % of control; the T/C (dose: 50.0 mg/kg/injection, schedule: Q01DX008 (ip), vehicle: water) was 116 % of control.
In the case of `O=C1OC(c2ccc(Cl)cc2)=N/C1=C\c1ccccc1`, the T/C was 120 % of control under setting [8], 90 % of control under setting [9] and 100 % of control under setting [10].
As to `CN(C)c1ccc(/C=N/N=C2\C(=O)Nc3c(Cl)cc(Cl)cc32)cc1`, the T/C is, setting by setting: under setting [8], 95 % of control; under setting [9], 97 % of control; under setting [10], 95 % of control.
As to `C=C(C)c1nc(N)nc(NCc2ccccc2)n1`, the T/C runs as follows: (dose: 50.0 mg/kg/injection, schedule: Q01DX005 (ip), vehicle: Klucel (hydroxypropylcellulose) (HPC)) 100 % of control; (dose: 100.0 mg/kg/injection, schedule: Q01DX005 (ip), vehicle: Klucel (hydroxypropylcellulose) (HPC)) 102 % of control; (dose: 200.0 mg/kg/injection, schedule: Q01DX005 (ip), vehicle: Klucel (hydroxypropylcellulose) (HPC)) 109 % of control.
Turning to `COc1cc(/C=N/NS(=O)(=O)c2ccc(C)cc2)cc([N+](=O)[O-])c1O`, the T/C is, setting by setting: (dose: 3.12 mg/kg/injection, schedule: Q01DX009 (ip), vehicle: distilled water + Tween-80) 87 % of control; (dose: 6.25 mg/kg/injection, schedule: Q01DX009 (ip), vehicle: distilled water + Tween-80) 103 % of control; (dose: 12.5 mg/kg/injection, schedule: Q01DX009 (ip), vehicle: distilled water + Tween-80) 104 % of control; (dose: 25.0 mg/kg/injection, schedule: Q01DX009 (ip), vehicle: distilled water + Tween-80) 104 % of control; under setting [4], 106 % of control; (dose: 50.0 mg/kg/injection, schedule: Q01DX009 (ip), vehicle: other) 99 % of control. Also, the T/C by setting is: (dose: 100.0 mg/kg/injection, schedule: Q01DX009 (ip), vehicle: other) 106 % of control; (dose: 200.0 mg/kg/injection, schedule: Q01DX009 (ip), vehicle: other) 98 % of control; (dose: 400.0 mg/kg/injection, schedule: Q01DX009 (ip), vehicle: other) 113 % of control.
As for `O=NN(C(=O)NC1CCC(C(=O)O)CC1)C1CCC(C(=O)O)CC1` (configuration not stated), the T/C reads like this: (dose: 25.0 mg/kg/injection, schedule: Q01DX001 (ip), vehicle: distilled water + Tween-80) 93 % of control; (dose: 50.0 mg/kg/injection, schedule: Q01DX001 (ip), vehicle: distilled water + Tween-80) 93 % of control; (dose: 100.0 mg/kg/injection, schedule: Q01DX001 (ip), vehicle: distilled water + Tween-80) 93 % of control; (dose: 200.0 mg/kg/injection, schedule: Q01DX001 (ip), vehicle: distilled water + Tween-80) 101 % of control.
As to `CCCCCCCCCCCCCCCCCOC(=O)CCCCCCCCCCCCC`, the T/C is 100 % of control (dose: 100.0 mg/kg/injection, schedule: Q01DX001 (ip), vehicle: other); 95 % of control (dose: 200.0 mg/kg/injection, schedule: Q01DX001 (ip), vehicle: other); 90 % of control (dose: 400.0 mg/kg/injection, schedule: Q01DX001 (ip), vehicle: other).
With `CC(C)(C)N1CC(COc2ccc(Cl)cc2)OC1=O` (configuration not stated), the T/C was 99 % of control under setting [5], 104 % of control under setting [6] and 102 % of control under setting [7].
Regarding `COc1cc(C(C)c2cc3c(cc2OCCO)OCO3)cc(OC)c1OC` (configuration not stated), the T/C (dose: 25.0 mg/kg/injection, schedule: Q01DX005 (ip), vehicle: saline with Tween-80) is 92 % of control and 94 % of control; the T/C (dose: 400.0 mg/kg/injection, schedule: Q01DX005 (ip), vehicle: saline with Tween-80) was 161 % of control and 180 % of control.
For `c1ccc2c3c(ccc2c1)OP1(=NP(N2CC2)(N2CC2)=NP(N2CC2)(N2CC2)=N1)Oc1ccc2ccccc2c1-3`, the T/C (dose: 100.0 mg/kg/injection, schedule: Q04DX002 (ip), vehicle: Klucel (hydroxypropylcellulose) (HPC)) was 101 % of control and 117 % of control; the T/C (dose: 200.0 mg/kg/injection, schedule: Q04DX002 (ip), vehicle: Klucel (hydroxypropylcellulose) (HPC)) was 100 % of control; the T/C (dose: 400.0 mg/kg/injection, schedule: Q04DX002 (ip), vehicle: Klucel (hydroxypropylcellulose) (HPC)) was 108 % of control; the T/C (dose: 800.0 mg/kg/injection, schedule: Q04DX002 (ip), vehicle: Klucel (hydroxypropylcellulose) (HPC)) is 102 % of control.
On to `Brc1ncc2[nH]cnc2n1`, for which the T/C reads like this: (dose: 50.0 mg/kg/injection, schedule: Q01DX005 (ip), vehicle: saline with Tween-80) 99 % of control; (dose: 100.0 mg/kg/injection, schedule: Q01DX005 (ip), vehicle: saline with Tween-80) 100 % of control.
For `COc1c2c(c(OC)c3c1C(=O)c1ccccc1C3=O)C(=O)CCC2`, the T/C is 93 % of control (dose: 30.0 mg/kg/injection, schedule: Q01DX005 (ip), vehicle: saline with Tween-80); 91 % of control under setting [1]; 87 % of control under setting [2]; 88 % of control under setting [3].
As to `COc1ccc(NC(SC)=C(C#N)C#N)cc1`, the T/C by setting is: (dose: 25.0 mg/kg/injection, schedule: Q04DX002 (ip), vehicle: saline with Tween-80) 99 % of control; (dose: 50.0 mg/kg/injection, schedule: Q04DX002 (ip), vehicle: saline with Tween-80) 100 % of control; (dose: 100.0 mg/kg/injection, schedule: Q04DX002 (ip), vehicle: saline with Tween-80) 98 % of control.
